Measurements taken from US20250346576A1, “KCNT1 INHIBITORS COMPRISING A PYRAZOLE CORE AND METHODS OF USE” (PRAXIS PRECISION MEDICINES, INC., priority 2022, published 2025).

Key:
[1] = Log D assay (1-octanol/buffer shake flask, LC/MS/MS); format: physicochemical; conditions: 1-octanol/phosphate buffer; 1-octanol / 0.1 M phosphate buffer pH 7.4
Text: Log D: The Log D assay is a miniaturized 1-octanol/buffer shake flask method followed by LC/MS/MS analysis. It is typically measured by determining the partition of a compound between an organic solvent (1-octanol) and an aqueous buffer (0.1 M phosphate buffer, pH 7.4; Varied buffer pH can be set). Since log D is pH dependent, the pH of the aqueous phase is always specified and is commonly measured at pH 7.4, the physiological pH of body fluids. […] Correct the peak areas by dilution factors and embedded internal standard, and the ratio of the corrected peak areas will be used to calculate the results (Log D value). • 8) Use the QC samples to monitor the process Log D determination. • 9) Data Analysis: The Log D value for each compound is calculated by the following equation: […]

[2] = Liver microsome metabolic stability assay (NADPH); format: in vitro ADME; conditions: human liver microsomes, 1.0 μM compound, 0.5 mg/ml protein, 37° C., read-out: CLint (HClint)
Description: Liver Microsome Metabolic Stability Assay (NADPH): • 1) Test compounds were incubated at 37° C. with liver microsomes (pooled from multiple donors) at 1.0 μM in the presence of NADPH (˜1.0 mM) at 0.5 mg/ml microsomal protein. • 2) Positive controls include testosterone (3A4 substrate), propafenone (2D6) and diclofenac (2C9). They are also incubated with microsomes in the presence of NADPH. • 3) Time samples (0, 5, 15, 30, 45 and 60 minutes) are removed and immediately mixed with cold acetonitrile containing internal standard (IS). Test compound incubated with microsomes without NADPH for 60 min are also included. • 4) Duplicate point for each test condition (n=2). • 5) Samples are analyzed by LC/MS/MS; disappearance of test compound is assessed base on peak area ratios of analyte/IS (no standard curve). • 6) An excel data summary, calculated intrinsic clearance and T1/2 values are provided. • 7) The following equation is used to calculate the microsome clearance: […]
The mg microsomal protein/g liver weight is 45 for 5 species. The liver weight values will use 40 g/kg, 30 g/kg, 32 g/kg, 20 g/kg and 88 g/kg for rat, monkey, dog, human and mouse, respectively. The liver clearance will be calculated using CLint(mic) with the following equation: […]

| logD at 1 h [1] | microsomal CLint at 1 μM [2] | Structure (SMILES) |
| --- | --- | --- |
| 3 | < 9.6 µL/min/mg | Cn1nc(C(F)(F)F)cc1C(=O)NC(C)(C)c1cc(-c2ccnc(C(F)(F)F)c2)nn1C [Compound 1063, 1-methyl-N-(2-(1-methyl-3-(2-(trifluoromethyl)pyridin-4-yl)-1H-pyrazol-5-yl)propan-2-yl)-3-(trifluoromethyl)-1H-pyrazole-5-carboxamide] |
| 4.4 | < 9.6 µL/min/mg | Cn1nc(C(F)(F)F)cc1C(=O)NC1(c2cc(-c3ccnc(C(F)(F)F)c3)nn2C)CCC1 [Compound 1064, 1-methyl-N-(1-(1-methyl-3-(2-(trifluoromethyl)pyridin-4-yl)-1H-pyrazol-5-yl)cyclobutyl)-3-(trifluoromethyl)-1H-pyrazole-5-carboxamide] |
